Consider one molecule from PMC6386909, “Dasatinib/HP-β-CD Inclusion Complex Based Aqueous Formulation as a Promising Tool for the Treatment of Paediatric Neuromuscular Disorders” (International Journal of Molecular Sciences, 2019).

The structures appear in SMILES notation. Several values for one entry are separate records, joined by “and”; a condition that tells them apart may be missing. Equal values may be shown once.

A short description of data set [1]: DAS solubility at 25 °C in different environments. The following applies: pH 6, Water (ultrapure, pH about 6.0). It counts as physicochemical. Here is the method: (§1) The phase solubility study was conducted in accordance with Higuchi and Connors. In detail, DAS was added in excess to an aqueous solution containing HP-β-CD in the appropriate concentration (0–10% w/v) until saturation and the suspensions thus obtained were placed in 4 mL vials with screw cap to avoid changes that are caused by evaporation. The obtained mixtures were vortexed for about 5 min and then placed in a thermostat bath at 25 °C for three days.
(§2) Subsequently, an aliquot of the aqueous phase of each mixture was transferred into a 5 mL glass syringe and filtered through a 0.22 μm cellulose acetate membrane filter (Millipore®, Milan, Italy).
(§3) The obtained filtrate was suitably diluted and subjected to subsequent HPLC analysis for the quantification of the drug. All of the determinations were conducted in triplicate.

Data set [2] can be described thus: Phase solubility study of DAS with HP-β-CD in water (Higuchi-Connors). The class given is physicochemical. The following applies: 25 °C. Here is the method:
as §1, §2, §3
The obtained data were used to determine the apparent stability 1:1 constant (K1:1) of the DAS/HP-β-CD inclusion complex, using the slope of the phase solubility diagrams straight line, as reported by Higuchi and Connors in the following equation:(1) K1:1=slope/S0(1−slope) where S0 represents DAS solubility in absence of cyclodextrin determined in the same way.

A short description of data set [3]: Dissolution studies at 37 °C (BIODIS USP III apparatus). The class given is physicochemical. The note with it: HCl 0.05 M pH 1.2, 37 °C, after approximately 420 min. As for the experimental part: Dissolution experiments were performed at 37 °C using a BIODIS USP III apparatus (Varian Inc., Cary North Carolina, CA, USA), equipped with a rod stirrer maintaining a rotational speed of 100 rpm during the test. Samples of DAS or DAS/HP-β-CD solid complex, equivalent to about 2 mg of DAS, were suspended in the dissolution medium (80 mL of 0.05 M phosphate buffer at pH 7.4 or HCl 0.05 M pH = 1.2). The volume of 80 mL was chosen taking into account the HPLC quantification limit for the determination of DAS.
At predetermined time intervals, 600 µL of suspension were collected and, in order to keep constant the initial volume, 600 μL of the same dissolution medium previously thermostated at the same temperature were added. Samples were subsequently filtered using a 0.22 µm membrane filter (Millipore® cellulose acetate), and the filtrates thus obtained were subjected to HPLC analysis after appropriate dilution. For quantitative analysis the calibration curve previously constructed was used and the dissolution profiles shown correspond to the average of three determinations.

In another data set the test system is C2C12 cells. Put plainly: Cytotoxicity / cell viability (CCK-8). The class given is cell-based, murine. The following applies: C2C12 myoblasts, 0.1–100 μM, 5 h treatment. Here is the method: C2C12 myocytes were cultured in DMEM that was supplemented with 10% fetal bovine serum, 1% penicillin, 1% streptomycin and 1% glutamine and were maintained at 37 °C in 5% CO2/95% air. Cell viability was evaluated by measuring the succinic dehydrogenases activity in the cell suspension using the cell counting Kit-8 (CCK-8) (Sigma Aldrich), which utilizes a highly water-soluble tetrazolium salt and whose detection sensitivity is higher than other tetrazolium salts.
Cells were seeded in 96-well cultures at a density of approximately 4.5 × 10^3 cells per well and then cultured for 16 h. Afterwards, the cells were treated for 5 h with free DAS (in DMSO <0.15% in order to ensure cellular vitality) or complexed with HP-β-CD, but at the same concentration calculated on the basis of the incorporation degree, both being dissolved in DMEM. Following exposure, 10 μL of CCK-8 were added into each well and then the plate was incubated for additional two hours. The absorbance at 450 nm was measured using a spectrophotometer (microplate reader Victor V31420–40; PerkinElmer, Wellesley, Massachusetts). […] The results are expressed as the percentage of the control and presented as the mean ± SD. Each data is from 24–48 replicates (wells) and 6–9 different culture dishes.

Data set [4] is described as follows: Pharmacokinetic analysis of DAS in quadriceps and liver after oral treatment. It counts as in vivo, C57Bl/6J mice. The note with it: DAS/HP-β-CD inclusion complex 15 mg/kg in drinking water for 1 week, WT mice.
Procedure: A total of 10 sedentary WT male mice C57Bl/6J (Charles River, Italy for Jackson Laboratories), homogeneous for age and body weight (BW) were divided into 2 groups as follows: 4 WT mice vehicle-treated (HP-β-CD 10%) and 6 WT mice treated with DAS/HP-β-CD inclusion complex at the dose of 15 mg/Kg. Drug and vehicle were administered in drinking water for 1 week.
In detail, analysis was performed in quadriceps (Quad) and livers of treated animals. Tissues were individually weighed into a "FastPrep" tube and PBS was added (3:1 ratio). Each tube was placed in the fast prep homogenizer on a predetermined 1min cycle to ensure complete homogenization. 40 µL of each homogenate was aliquoted to a fresh tube and 50 µL of MeOH plus 150 µL of Methanol-containing Internal standard (25 ng/mL Imipramine HCl) was added. Each sample was mixed on a Bioshake for 1 min and then transferred to the freezer at −20 °C for at least two hours prior centrifugation at 2500 × g for 20 min. The supernatants were then transferred to a 96-well plate for sampling by the LC-MS/MS. A Thermo TSQ Quantiva with Thermo Vanquish UHPLC system was used (Thermo Fisher Scientific Inc, Milan, Italy). […] Quantitative analysis was conducted by MRM at 232.06 to 401.11 m/z for DAS inclusion complex and at 86.10 to 193.04 m/z for the internal standard Imipramine. […]
On the set-up of data set [5]: method as in PMID 26604135. The following applies: cited from earlier work.
The next data set has as its system Src-TK. Also on record: method as in PMID 25658745. The following applies: cited from earlier work.
A further data set relates to cancer cell growth. The following applies: no reference given; cited from earlier work.
The conditions of data set [6]: known values, no reference given; cited from earlier work.

Regarding `Cc1nc(Nc2ncc(C(=O)Nc3c(C)cccc3Cl)s2)cc(N2CCN(CCO)CC2)n1` [DAS, N-(2-chloro-6-methylphenyl)-2-[[6-[4-(2-hydroxyethyl)piperazin-1-yl]-2-methylpyrimidin-4-yl]amino]-1,3-thiazole-5-carboxamide], the solubility at 3 days is 1.33 µM in data set [1] (read-out: DAS Solubility); 0.000649 mg/mL in data set [1] (read-out: DAS Solubility (mg/mL)); 29 µM and 14 µg/mL in [2] (aqueous HP-β-CD solution, aqueous with cosolvent or surfactant or cyclodextrin, thermodynamic from solid, 6% w/v of HP-β-CD, read-out: DAS aqueous solubility in the presence of HP-β-CD). The “1:1 apparent formation (complexation) constant K1:1” value in data set [2] (DAS with HP-β-CD, from linear portion (0–6% HP-β-CD) of the phase solubility diagram) was 922.13 M⁻¹. In addition, in [3], the “quantity of drug dissolved” value is listed as “approximately 81%”. For the same molecule, the “cytotoxic effect on cell viability” value in the data set on C2C12 cells is given as “cytotoxic only at high concentrations”. Further, the “DAS levels in quadriceps and livers” value in [4] was “Appreciable drugs’ levels were found in quadriceps and livers”. For the same molecule, in data set [5], the pKa (as a rule, the negative logarithm of the acid dissociation constant) is reported as 10.28. Further, the “inhibition of Src-TK, concentration range” value with Src-TK is “nanomolar range”. Also, the “IC50 values known to inhibit cancer cell growth” value in the data set with cancer cell growth was “nM range”. In addition, the therapeutic plasma levels result in data set [6] is reported as “low µM values”.
